Test results from ChEMBL document CHEMBL1201862, “PubChem BioAssay data set” (2004).
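Dose response: 5 concentrations. Exposure: 48 h. Format: 96-well plates. Endpoint: linear interpolation; highest concentration if not reached. GI50 is the concentration that inhibits growth by half.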 Active and inactive are the calls of the source. No stated cut-off is given here; in the data, active = GI50 up to about 1.1 µM and inactive = higher.

Columns and labels:
Test in all cases: NCI-60 cell line screen, 48 h
[1] = system: SK-MEL-5
[2] = system: SF-539
[3] = system: T47D
[4] = system: UACC-257
[5] = system: HOP-62
[6] = system: A549
[7] = system: U-251
[8] = system: NCI-H23
[9] = system: MOLT-4
[10] = system: SF-268
[11] = system: HCC 2998
[12] = system: MCF7
[13] = system: NCI-H460
[14] = system: SNB-19
[15] = system: Hs-578T
[16] = system: CCRF-CEM
[17] = system: SN12C
[18] = system: KM12
[19] = system: Malme-3M
[20] = system: COLO 205
[21] = system: DU-145
[22] = system: SF-295
[23] = system: RPMI-8226
[24] = system: UACC-62
[25] = system: CAKI-1
[26] = system: MDA-MB-231
[27] = system: HCT-116
[28] = system: SW-620
[29] = system: SNB-75
[30] = system: MDA-N
[31] = system: UO-31
[32] = system: NCI-H226
[33] = system: K562
[34] = system: LOX IMVI
[35] = system: NCI/ADR-RES
[36] = system: BT-549
[37] = system: OVCAR-3
[38] = system: SR
[39] = system: IGROV-1
[40] = system: PC-3
[41] = system: MDA-MB-435
[42] = system: ACHN
[43] = system: OVCAR-5
[44] = system: OVCAR-8
[45] = system: NCI-H522
[46] = system: HL-60
[47] = system: TK-10
[48] = system: SK-MEL-28
[49] = system: HCT-15
[50] = system: HT-29
[51] = system: EKVX
[52] = system: RXF 393
[53] = system: 786-0
[54] = system: HOP-92
[55] = system: SK-MEL-2
[56] = system: M14
[57] = system: OVCAR-4
[58] = system: A498
[59] = system: SK-OV-3

Measured: GI50

Cc1cccc(C(O)c2ccccn2)c1O (configuration not stated)
inactive: [1] > 100 µM | [2] > 100 µM | [3] 15.7 µM | [4] > 100 µM | [5] > 100 µM | [6] > 100 µM | [7] > 100 µM | [8] > 100 µM | [9] > 100 µM | [10] > 100 µM | [11] > 100 µM | [12] > 100 µM | [13] > 100 µM | [14] > 100 µM | [15] > 100 µM | [16] > 100 µM | [17] > 100 µM | [18] > 100 µM | [19] > 100 µM | [20] > 100 µM | [21] > 100 µM | [22] > 100 µM | [23] > 100 µM | [24] 74.6 µM | [25] > 100 µM | [26] > 100 µM | [27] > 100 µM | [28] > 100 µM | [29] > 100 µM | [30] > 100 µM | [31] > 100 µM | [32] > 100 µM | [33] > 100 µM | [34] > 100 µM | [35] > 100 µM | [36] > 100 µM | [37] > 100 µM | [38] > 100 µM | [39] > 100 µM | [40] > 100 µM | [41] > 100 µM | [42] > 100 µM | [43] > 100 µM | [44] > 100 µM | [45] > 100 µM | [46] > 100 µM | [47] > 100 µM | [48] > 100 µM | [50] > 100 µM | [51] > 100 µM | [52] > 100 µM
83.2 µM: [49]

Nc1ncnc2c1ncc(=O)n2C1CC(O)C(CO)O1 (configuration not stated)
> 100 µM: [49]
inactive: [1] > 100 µM | [53] > 100 µM | [2] > 100 µM | [3] > 100 µM | [4] > 100 µM | [5] > 100 µM | [6] > 100 µM | [7] > 100 µM | [8] > 100 µM | [9] > 100 µM | [10] > 100 µM | [11] > 100 µM | [12] > 100 µM | [13] > 100 µM | [14] > 100 µM | [15] > 100 µM | [16] > 100 µM | [17] > 100 µM | [18] > 100 µM | [19] > 100 µM | [20] > 100 µM | [21] > 100 µM | [22] 65.6 µM | [23] > 100 µM | [24] > 100 µM | [25] > 100 µM | [54] > 100 µM | [26] > 100 µM | [27] > 100 µM | [28] > 100 µM | [29] > 100 µM | [30] > 100 µM | [55] > 100 µM | [56] > 100 µM | [31] > 100 µM | [32] > 100 µM | [33] > 100 µM | [34] > 100 µM | [35] > 100 µM | [36] > 100 µM | [37] > 100 µM | [38] > 100 µM | [57] > 100 µM | [39] > 100 µM | [40] > 100 µM | [58] > 100 µM | [41] > 100 µM | [42] > 100 µM | [43] > 100 µM | [44] > 100 µM | [45] > 100 µM | [47] > 100 µM | [48] > 100 µM | [59] > 100 µM | [50] > 100 µM | [51] > 100 µM

CN(C)CC1CCC/C(=C\c2ccc(Cl)cc2)C1=O (configuration not stated)
inactive: [1] 4 µM | [53] 1.68 µM | [2] 10.6 µM | [3] 3.49 µM | [4] 4.91 µM | [5] 15.8 µM | [6] 16.9 µM | [7] 3.71 µM | [8] 8.02 µM | [10] 5.2 µM | [11] 7.38 µM | [12] 1.24 µM | [13] 17.3 µM | [14] 11.8 µM | [15] 2.92 µM | [17] 3.33 µM | [18] 1.69 µM | [19] 1.91 µM | [20] 2.12 µM | [21] 15.5 µM | [22] 14.2 µM | [24] 2.08 µM | [25] 1.93 µM | [54] 3.15 µM | [26] 3.05 µM | [27] 1.8 µM | [28] 1.93 µM | [29] 3.25 µM | [30] 1.94 µM | [55] 1.41 µM | [56] 2.28 µM | [31] 2.25 µM | [32] 14.7 µM | [34] 1.63 µM | [35] 3.62 µM | [36] 1.73 µM | [37] 3.21 µM | [38] 1.33 µM | [57] 2.79 µM | [39] 3.21 µM | [40] 2.67 µM | [58] 17.3 µM | [41] 3.83 µM | [42] 2.57 µM | [43] 16.9 µM | [44] 3.85 µM | [45] 1.75 µM | [46] 1.37 µM | [47] 3.9 µM | [48] 3.46 µM | [59] 10.9 µM | [50] 9.27 µM | [51] 11.2 µM
active: [9] 0.9 µM | [16] 0.713 µM | [23] 0.254 µM | [33] 1 µM
2.05 µM: [49]
